Assay [1] deals with Mycobacterium tuberculosis. In words: Growth inhibition of multi-drug resistant Mycobacterium tuberculosis DQ707 harboring katG S315N mutant. Type of assay: functional.
The test system of assay [2] is Mycobacterium tuberculosis. The assay can be described thus: Growth inhibition of multi-drug resistant Mycobacterium tuberculosis 05TB42059. In kind it is functional.

The term IC50 denotes the concentration at which inhibition is half-maximal.

On to `Cc1c(-c2ccc(N3CCC(F)(F)C3)cc2)[nH]c2cc(F)cc(F)c2c1=O`, for which the IC50 in assay [1] is 0.548 µM; in assay [2], 0.14 µM.

Values taken from ChEMBL document CHEMBL4049411, “Rational Design, Synthesis, and Biological Evaluation of Heterocyclic Quinolones Targeting the Respiratory Chain of Mycobacterium tuberculosis” (J Med Chem, 2017).
